Reference: US20200397796A1, “METHODS OF TREATMENT OF CANCER COMPRISING CHK1 INHIBITORS” (SIERRA ONCOLOGY, INC., priority 2018, published 2020)
Values joined by “and” are separate entries in the source; they are usually repeats but may differ in a detail not shown here. Equal values may be shown once. Read-outs that look alike come from different tables or passages of the source.

Columns and labels:
[1] = system: SJSA-1 human osteosarcoma; experiment: In vivo efficacy, SJSA-1 xenograft model; set-up: species or system mouse; conditions: data not shown
Procedure: (§1) A program of in vivo efficacy studies was performed to assess the activity of SRA737 in combination with genotoxic chemotherapy and targeted agents, and as monotherapy.
(§2) One of these models also carried a MYCN amplification. A fourth HGSOC PDX model with partial resistance to PARPi was also sensitive to high dose SRA737 monotherapy.

PDX model of TNBC = experiment: In vivo efficacy, PDX model of TNBC; set-up: species or system mouse; conditions: with low-dose gemcitabine; data not shown
Procedure: as §1, §2

[2] = system: HGSOC PDX model with partial resistance to PARPi; experiment: In vivo efficacy, HGSOC PDX model with partial resistance to PARPi; set-up: species or system mouse; conditions: high dose SRA737 monotherapy
Procedure: as §1, §2

MDA-MB-231 model of TNBC = experiment: In vivo efficacy, MDA-MB-231 model; set-up: species or system mouse; conditions: data not shown
Procedure: as §1, §2

LL/2 (lung cancer) = experiment: In vivo efficacy, LL/2 syngeneic model; set-up: species or system mouse; conditions: data not shown
Procedure: as §1, §2

[3] = system: CHK1 S296 autophosphorylation; experiment: Gemcitabine induced CHK1 S296 autophosphorylation in HT29 tumor xenografts (western blotting); assay type: in vivo, mouse; conditions: oral, 24 hours following gemcitabine 100 mg/kg IV
Procedure: (§3) The effect of SRA737 on Gemcitabine induced CHK1 S296 autophosphorylation was assessed as described in Walton et al. (Oncotarget. 2016 Jan. 19; 7(3): 2329-2342), herein incorporated by reference for all it teaches. Briefly, mice bearing HT29 tumor xenografts were administered (i) vehicle control or (ii) gemcitabine (100 mg/kg in saline, IV) or (iii) a combination of SRA737 (12.5, 25, 50 or 100 mg/kg in DTPW, oral) and gemcitabine (100 mg/kg) with SRA737 administered 24 hours following gemcitabine administration (n=3 per time point per treatment). […] Exposure in the tumor was greater than 10-fold higher than in plasma. The circulating plasma concentration at this 24-hour timepoint corresponded to a free drug concentration of approximately 6 nM (2 ng/mL) based on plasma protein binding in mice of 94%.

[4] = SRA737 plasma and tumor concentrations in HT29 xenograft model; assay type: in vivo, mouse; set-up: Tumor (6 h) concentration / Tumor (24 h) concentration: unit not given here; conditions: for concentration at 6 h / concentration at 24 h: plasma
Procedure: For each dose, columns from left to right are concentrations for plasma at 6 hours, plasma at 24 hours, tumor at 6 hours, and tumor at 24 hours, respectively.
as §3, with “([…])” for “(12.5, 25, 50 or 100 mg/kg in DTPW, oral)”

Single dose PK, mouse = assay type: in vivo
Procedure: The PK of SRA737 have been determined in the mouse, rat, dog and monkey following oral and IV administration (Table 3). […] An acceptable terminal elimination t1/2 was also observed in each species. […] The plasma protein binding of SRA737 at 1 and 10 μM was examined in mouse, minipig, monkey and human plasma using ultracentrifugation and in dog plasma (10 μM) using rapid equilibrium dialysis.

[5] = Caco-2 permeability assay; assay type: in vitro ADME; conditions: human
Procedure: The membrane permeability of SRA737 was assessed in the parallel artificial membrane permeability assay (PAMPA) and Caco-2 assays. Permeability in the PAMPA assay was classified as low.

rat hepatocytes = experiment: Stability in cryopreserved hepatocytes, rat; assay type: in vitro ADME; conditions: 10 μM, after 4 hours of incubation
Procedure: The formation of SRA737-related metabolites was determined in cryopreserved hepatocytes from human, mouse, rat, dog, minipig and monkey samples after incubation with SRA737 at a nominal concentration of 10 μM for up to 4 hours. […] In the human hepatocyte preparation, approximately 67% of the parent remained after 4 hours of incubation compared to 75% and 7% in the rat and minipig preparations, respectively. Eight human SRA737 metabolites were observed. All SRA737 metabolites formed by human hepatocytes were also formed by monkey hepatocytes. Six metabolites were present at equal or greater abundance in the monkey.

CYP 2D6 = CYP 2D6 (Homo sapiens, UniProt P10635); experiment: CYP inhibition, 2D6; assay type: in vitro ADME; conditions: highest concentration investigated
Chain of CYP 2D6 (P10635 whole entry): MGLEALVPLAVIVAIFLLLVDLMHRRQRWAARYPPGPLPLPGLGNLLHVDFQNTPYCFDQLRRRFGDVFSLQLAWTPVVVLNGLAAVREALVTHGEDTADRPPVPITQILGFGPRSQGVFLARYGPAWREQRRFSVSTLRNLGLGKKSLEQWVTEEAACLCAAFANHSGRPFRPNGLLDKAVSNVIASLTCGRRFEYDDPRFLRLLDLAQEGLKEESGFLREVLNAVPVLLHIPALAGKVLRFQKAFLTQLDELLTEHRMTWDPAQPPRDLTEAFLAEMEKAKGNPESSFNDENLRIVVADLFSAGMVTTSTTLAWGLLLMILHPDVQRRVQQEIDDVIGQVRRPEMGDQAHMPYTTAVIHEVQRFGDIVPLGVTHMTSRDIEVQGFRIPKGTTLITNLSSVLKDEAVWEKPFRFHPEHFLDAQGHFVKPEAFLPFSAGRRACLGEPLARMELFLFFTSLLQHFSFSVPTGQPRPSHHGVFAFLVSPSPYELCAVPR

[6] = GLP 28-day repeat oral dose toxicity and toxicokinetics, minipig; assay type: in vivo
Excerpt: Reference source not found.6.

[7] = in vivo, Mouse IV 10 mg/kg single dose
[8] = in vivo, Mouse oral 10 mg/kg single dose
[9] = in vivo, po, Minipig Female, 10 mg/kg/day (HNSTD), daily dosing for 28 days
[10] = in vivo, po, Minipig Female, 40 mg/kg/day, daily dosing for 28 days
[11] = in vivo, po, Minipig Female, 75 mg/kg/day, daily dosing for 28 days
[12] = in vivo, po, Minipig Male, 10 mg/kg/day (HNSTD), daily dosing for 28 days
[13] = in vivo, po, Minipig Male, 40 mg/kg/day, daily dosing for 28 days

## N#Cc1cnc(Nc2cc(NCC3CNCCO3)c(C(F)(F)F)cn2)cn1 (stereo not shown) [SRA737, 5-[[4-[[morpholin-2-yl]methylamino]-5-(trifluoromethyl)-2-pyridyl]amino]pyrazine-2-carbonitrile]
[1]; in combination with standard-dose gemcitabine
  antitumor activity: Significant, dose-dependent antitumor activity
[1]; with low-dose gemcitabine
  synergy: Synergy
PDX model of TNBC
  synergy: Synergy
[2]
  sensitivity to SRA737: sensitive
MDA-MB-231 model of TNBC
  single agent efficacy: single agent efficacy
LL/2 (lung cancer)
  single agent efficacy: single agent efficacy
[3]
  SRA737 doses at which inhibition of pS296 Chk1 was observed: greater than or equal to 12.5 mg/kg
[4]; 3.125 mg/kg
  Tumor (6 h) concentration: 3183.276
  Tumor (24 h) concentration: 645.7623
[4]; 6.25 mg/kg
  Tumor (6 h) concentration: 4011.501
  Tumor (24 h) concentration: 965.7797
[4]; 12.5 mg/kg
  Tumor (6 h) concentration: 19009.57
  Tumor (24 h) concentration: 3974.933
[4]; 25 mg/kg
  Tumor (6 h) concentration: 37516
  Tumor (24 h) concentration: 16289.53
[4]; 50 mg/kg
  Tumor (6 h) concentration: 76331.2
  Tumor (24 h) concentration: 27483.73
[4]; 100 mg/kg
  Tumor (6 h) concentration: 131506.7
  Tumor (24 h) concentration: 101764.1
[4]; mouse, oral, 3.125 mg/kg
  concentration at 6 h: 194 nM
[4]; mouse, oral, 3.125 mg/kg, read-out: Plasma (24 h) concentration
  concentration at 24 h: 0 nM
[4]; mouse, oral, 6.25 mg/kg
  concentration at 6 h: 323 nM
[4]; mouse, oral, 6.25 mg/kg, read-out: Plasma (24 h) concentration
  concentration at 24 h: 13.1 nM
[4]; mouse, oral, 12.5 mg/kg, 24-hour timepoint, based on plasma protein binding in mice of 94%, read-out: free drug concentration in plasma
  concentration at 24 h: ~6 nM and ~2 ng/mL
[4]; mouse, oral, 12.5 mg/kg, at 24 hours, approximate, read-out: minimum (total) plasma concentration corresponding to inhibition of pS296 Chk1
  concentration at 24 h: ~100 nM
[4]; mouse, oral, 12.5 mg/kg, at 24 hours, read-out: minimum (total) plasma concentration corresponding to inhibition of pS296 Chk1
  concentration at 24 h: ~40 ng/mL
[4]; mouse, oral, 12.5 mg/kg, read-out: Plasma (24 h) concentration
  concentration at 24 h: 78 ± 27 nM
[4]; mouse, tumor, oral, HT29 xenograft mice, read-out: exposure in the tumor relative to plasma
  Kp: > 10
Single dose PK, mouse; Mouse oral 10 mg/kg single dose
  Foral: 105%
Single dose PK, mouse; [7]
  AUC(0-t): 3770 ng·h/mL
  half-life: 2.9 h
Single dose PK, mouse; [8]
  AUC(0-t): 3940 ng·h/mL
  Cmax: 610 ng/mL
  Tmax: 1 h
  half-life: 2.8 h
[5]
  Papp at 10 μM: 20.7 ± 9.1 ×10⁻⁶ cm/s
[5]; read-out: efflux ratio (A>B/B>A)
  efflux ratio at 10 μM: 0.8
Rat hepatocytes
  parent remained: 75%
CYP 2D6
  IC50: 10 to 50 µM
[6]; [9]
  AUC(0-t): 6560 ng·h/mL
  Cmax: 515 ng/mL
  half-life: 13.6 h
[6]; [10]
  AUC(0-t): 45500 ng·h/mL
  Cmax: 2830 ng/mL
  half-life: 14.3 h
[6]; [11]
  AUC(0-t): 97000 ng·h/mL
  Cmax: 5340 ng/mL
  half-life: 31.5 h
[6]; [12]
  AUC(0-t): 6480 ng·h/mL
  Cmax: 622 ng/mL
  half-life: 9.25 h
[6]; [13]
  AUC(0-t): 22200 ng·h/mL
  Cmax at 28 days: 2070 ng/mL
  half-life: 7.66 h
[6]; minipig pivotal study, dose-dependent, reversible on cessation
  toxicological findings: bone marrow toxicity
